Where a name gives a salt, the structure may show the parent alone.
Tests used:
[1] = molecular target: T1, Aurora kinase B (Homo sapiens, UniProt Q96GD4); test: Inhibition of aurora B in human SW620 cells assessed as inhibition of histone H3 phosphorylation; format: cell-based, SW-620
[2] = molecular target: T1, Aurora kinase B; test: Inhibition of aurora B kinase
[3] = molecular target: T2, Aurora kinase A (Homo sapiens, UniProt O14965)
T2 sequence (O14965 whole entry): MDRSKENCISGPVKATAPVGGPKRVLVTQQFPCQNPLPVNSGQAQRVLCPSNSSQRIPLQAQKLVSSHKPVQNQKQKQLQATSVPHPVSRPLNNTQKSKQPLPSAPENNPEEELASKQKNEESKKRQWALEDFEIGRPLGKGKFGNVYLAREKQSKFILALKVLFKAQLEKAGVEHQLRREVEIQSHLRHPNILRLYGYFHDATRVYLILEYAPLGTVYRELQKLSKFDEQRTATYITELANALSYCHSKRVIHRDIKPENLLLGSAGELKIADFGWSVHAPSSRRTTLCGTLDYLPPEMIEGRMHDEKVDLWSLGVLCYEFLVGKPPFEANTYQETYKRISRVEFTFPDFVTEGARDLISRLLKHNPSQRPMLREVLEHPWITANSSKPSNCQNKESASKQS

[4] = molecular target: Glycogen synthase kinase-3 beta (Homo sapiens, UniProt P49841); test: Inhibition of Gsk3beta
Sequence of Glycogen synthase kinase-3 beta (P49841 whole entry): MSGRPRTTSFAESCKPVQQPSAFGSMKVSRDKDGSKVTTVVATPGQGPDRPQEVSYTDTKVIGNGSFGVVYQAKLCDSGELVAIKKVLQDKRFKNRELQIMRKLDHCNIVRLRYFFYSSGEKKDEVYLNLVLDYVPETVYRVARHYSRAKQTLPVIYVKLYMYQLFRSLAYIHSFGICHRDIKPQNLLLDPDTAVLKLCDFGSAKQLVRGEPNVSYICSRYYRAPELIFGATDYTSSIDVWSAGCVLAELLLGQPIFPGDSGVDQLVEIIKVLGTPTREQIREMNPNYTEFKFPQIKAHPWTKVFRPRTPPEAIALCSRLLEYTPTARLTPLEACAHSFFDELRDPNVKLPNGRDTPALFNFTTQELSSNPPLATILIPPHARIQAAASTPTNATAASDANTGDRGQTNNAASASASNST

[5] = molecular target: Proto-oncogene tyrosine-protein kinase Src (Homo sapiens, UniProt P12931); test: Inhibition of Src
Sequence of Proto-oncogene tyrosine-protein kinase Src (P12931 2-536 limits assumed): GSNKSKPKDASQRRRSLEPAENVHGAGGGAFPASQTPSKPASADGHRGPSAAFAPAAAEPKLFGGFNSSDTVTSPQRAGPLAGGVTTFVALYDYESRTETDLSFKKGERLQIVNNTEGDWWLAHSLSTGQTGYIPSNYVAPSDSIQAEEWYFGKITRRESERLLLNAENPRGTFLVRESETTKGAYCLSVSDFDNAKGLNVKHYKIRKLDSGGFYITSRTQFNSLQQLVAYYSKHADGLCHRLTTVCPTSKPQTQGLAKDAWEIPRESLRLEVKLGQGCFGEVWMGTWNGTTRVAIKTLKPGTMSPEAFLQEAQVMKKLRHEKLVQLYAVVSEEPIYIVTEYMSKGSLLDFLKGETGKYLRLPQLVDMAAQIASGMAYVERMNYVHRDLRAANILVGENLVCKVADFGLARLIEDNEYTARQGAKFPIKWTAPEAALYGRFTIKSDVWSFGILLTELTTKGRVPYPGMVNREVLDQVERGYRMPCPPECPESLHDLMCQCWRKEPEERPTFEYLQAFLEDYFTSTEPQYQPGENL

[6] = test system: COLO 205; test: Antiproliferative activity against human COLO205 cells assessed as inhibition of thymidine uptake after 96 hrs; format: functional, cell-based; conditions: COLO 205, 96 h
[7] = test system: HCT-116; test: Antiproliferative activity against human HCT116 cells assessed as BrdU incorporation after 72 hrs; format: functional, cell-based; conditions: HCT-116, 72 h
[8] = Aqueous solubility at pH 7.4; format: physicochemical
[9] = Half life in iv dosed rat; format: ADME, organism-based; conditions: in vivo
[10] = Bioavailability in […] rat; format: ADME, organism-based; conditions: in vivo
[11] = Toxicity in po dosed rat assessed at maximum tolerated dose after 2 weeks; format: organism-based; conditions: in vivo
[12] = species on record: Rattus norvegicus; test: Antitumor activity in rat assessed as inhibition of tumor volume; format: functional
[13] = Volume of distribution at steady state in iv dosed rat; format: ADME, organism-based; conditions: in vivo, read-out: Vdss
[14] = Clearance in iv dosed rat; format: ADME, organism-based; conditions: in vivo
[15] = molecular target: Tyrosine-protein kinase Lck (Homo sapiens, UniProt P06239); test: Inhibition of Lck
Sequence of Tyrosine-protein kinase Lck (P06239 whole entry): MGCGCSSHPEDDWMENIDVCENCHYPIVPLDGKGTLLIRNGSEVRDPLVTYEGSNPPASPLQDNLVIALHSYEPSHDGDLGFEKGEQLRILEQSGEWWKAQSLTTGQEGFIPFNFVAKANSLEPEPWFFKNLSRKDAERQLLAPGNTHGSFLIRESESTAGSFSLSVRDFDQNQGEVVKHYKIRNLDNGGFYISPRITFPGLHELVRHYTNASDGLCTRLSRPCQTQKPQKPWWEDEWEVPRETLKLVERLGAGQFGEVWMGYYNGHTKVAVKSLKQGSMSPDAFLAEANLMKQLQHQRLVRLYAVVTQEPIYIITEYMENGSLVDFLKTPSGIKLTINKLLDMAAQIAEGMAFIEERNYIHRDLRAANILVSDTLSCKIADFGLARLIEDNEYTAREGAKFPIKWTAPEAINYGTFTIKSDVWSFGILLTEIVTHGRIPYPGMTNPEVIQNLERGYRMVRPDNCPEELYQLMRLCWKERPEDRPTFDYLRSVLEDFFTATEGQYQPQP

[16] = molecular target: T3, Aurora kinase C (Homo sapiens, UniProt Q9UQB9); test: Inhibition of aurora C kinase
T3 sequence (Q9UQB9 whole entry): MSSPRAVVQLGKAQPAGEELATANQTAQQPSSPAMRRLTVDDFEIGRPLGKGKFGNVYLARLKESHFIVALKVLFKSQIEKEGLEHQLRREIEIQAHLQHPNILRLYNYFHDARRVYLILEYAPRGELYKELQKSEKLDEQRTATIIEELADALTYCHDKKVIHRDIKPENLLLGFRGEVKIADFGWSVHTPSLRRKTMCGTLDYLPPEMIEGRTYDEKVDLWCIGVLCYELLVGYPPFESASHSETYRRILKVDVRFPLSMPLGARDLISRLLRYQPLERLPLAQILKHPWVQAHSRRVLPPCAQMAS

[17] = test system: A2780; test: Antiproliferative activity against human A2780 cells assessed as accumulation of 4N DNA; format: functional, cell-based
[18] = Clearance in iv infused tumor bearing mouse; format: ADME, organism-based; conditions: in vivo
[19] = Volume of distribution in iv infused tumor bearing mouse; format: ADME, organism-based; conditions: in vivo
[20] = Elimination half life in iv infused tumor bearing mouse; format: ADME, organism-based; conditions: in vivo, read-out: beta t1/2 (converted)
[21] = Drug level in tumor bearing mouse plasma at 30 mg/kg after 24 hrs; format: ADME, organism-based; set-up: dose 30 mg/kg; conditions: read-out: Activity
[22] = Drug level in tumor bearing mouse tumor at 30 mg/kg after 24 hrs; format: ADME, organism-based, Neoplasm; set-up: dose 30 mg/kg; conditions: read-out: Activity
[23] = test system: Homo sapiens; test: Drug elimination in human patient after 5 days of iv infusion; format: ADME, organism-based; conditions: in vivo, 120 h

T1 sequence (Q96GD4 whole entry): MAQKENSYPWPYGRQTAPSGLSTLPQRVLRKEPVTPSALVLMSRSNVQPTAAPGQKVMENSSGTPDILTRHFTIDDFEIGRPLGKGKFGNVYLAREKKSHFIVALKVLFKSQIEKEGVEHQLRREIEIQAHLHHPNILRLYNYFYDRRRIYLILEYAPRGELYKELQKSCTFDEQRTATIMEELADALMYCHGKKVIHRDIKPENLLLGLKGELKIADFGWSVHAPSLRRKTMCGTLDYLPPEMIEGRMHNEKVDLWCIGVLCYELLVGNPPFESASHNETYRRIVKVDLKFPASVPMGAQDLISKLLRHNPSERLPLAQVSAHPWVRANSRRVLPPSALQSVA

CCN(CCO)CCCOc1cc2ncnc(Nc3cc(CC(=O)Nc4cccc(F)c4F)[nH]n3)c2cc1OC
IC50 [1]: 45 nM | IC50 [2]: < 1 nM | IC50 [3]: 360 nM

CCN(CCO)CCCOc1cc2ncnc(Nc3cc(CC(=O)Nc4cccc(F)c4)[nH]n3)c2cc1OC
IC50 [1]: 270 nM | IC50 [2]: 1 nM | IC50 [3]: 190 nM

CCN(CCO)CCCOc1ccc2c(Nc3cc(CC(=O)Nc4cccc(F)c4F)[nH]n3)ncnc2c1
IC50 [2]: 7.5 nM | IC50 [3]: 800 nM

COc1cc2c(Nc3cc(CC(=O)Nc4cccc(F)c4F)[nH]n3)ncnc2cc1OCCCN(CCO)CC(C)C
IC50 [1]: < 1 nM | IC50 [2]: < 1 nM | IC50 [3]: 18 nM

CCCN(CCO)CCCOc1cc2ncnc(Nc3cc(CC(=O)Nc4cccc(F)c4)[nH]n3)c2cc1OC
IC50 [1]: 290 nM | IC50 [2]: 2 nM | IC50 [3]: 220 nM

Cc1cc(Nc2nc(-c3ccccc3)nc3ccccc23)n[nH]1
Ki [4]: 22 nM | Ki [5]: 81 nM | IC50 [6]: 1400 nM | Ki [3]: 58 nM

COc1cc2c(Nc3cnc(NC(=O)c4ccccc4)nc3)ncnc2cc1OCCCN1CCOCC1
IC50 [2]: 1 nM

O=C(Nc1cccc(C(F)(F)F)c1)Nc1ncc(CCNc2ncnc3ccsc23)s1
EC50 [7]: 13 nM

O=C(Nc1ccccc1)Nc1ncc(CCNc2ncnc3ccsc23)s1
EC50 [7]: 45 nM

COc1cc2c(Nc3ncc(C(=O)Nc4ccccc4)s3)ncnc2cc1OCCCN1CCOCC1
IC50 [2]: 42 nM | IC50 [3]: 4 nM

CCC(=O)Nc1ccc(Sc2nc(Nc3cc(C)n[nH]3)cc(N3CCOCC3)n2)cc1
IC50 [6]: 135 nM | solubility [8]: 5.4 µM | IC50 [2]: 14 nM | IC50 [3]: 1.7 nM

CCC(=O)Nc1ccc(Sc2nc(Nc3cc(C)n[nH]3)cc(N3CCNCC3)n2)cc1
IC50 [6]: 79 nM | solubility [8]: 296 µM | IC50 [2]: 18 nM | IC50 [3]: 3.7 nM

CCC(=O)Nc1ccc(Sc2nc(Nc3cc(C)n[nH]3)cc(N3CCN(C(C)(C)C)CC3)n2)cc1
IC50 [6]: 2 nM | solubility [8]: 221 µM | IC50 [2]: 11 nM | IC50 [3]: 1.3 nM

CC(C)(C)c1ccc(C(=O)Nc2n[nH]c3c2CN(C(=O)Cc2cccs2)C3)cc1
IC50 [7]: 2000 nM

COc1cc2c(Nc3nc(C(=O)Nc4ccccc4)cs3)ncnc2cc1OCCCN1CCOCC1
IC50 [2]: 530 nM | IC50 [3]: 182 nM

CCC(=O)Nc1ccc(Sc2nc(Nc3cc(C)[nH]n3)cc(N3CCN(C)CC3)n2)cc1
IC50 [6]: 24 nM | solubility [8]: 63.4 µM | IC50 [2]: 20 nM | IC50 [3]: 1.6 nM

CC(=O)Nc1ccc(Sc2nc(Nc3cc(C)n[nH]3)c3ccccc3n2)cc1
half-life [9]: 1 h | bioavailability [10]: 44% | MTD at 336 h [11]: 300 mg/kg | inhibition (INH) [12]: 50% | Ki [4]: 1030 nM | Ki [5]: 1260 nM | IC50 [6]: 480 nM | Vd [13]: 0.38 L/kg | Ki [2]: 27 nM | clearance [14]: 7 mL/min | Ki [3]: 4 nM

CCC(=O)Nc1ccc(Sc2nc(Nc3cc(C)n[nH]3)cc(N3CCCCC3)n2)cc1
IC50 [6]: 400 nM | solubility [8]: 2.5 µg/mL | IC50 [2]: 8 nM | IC50 [3]: 1.6 nM

CCC(=O)Nc1ccc(Sc2nc(Nc3cc(C)n[nH]3)cc(N3CCN(C4CC4)CC3)n2)cc1
IC50 [6]: 75 nM | solubility [8]: 12.8 µM | IC50 [2]: 9.5 nM | IC50 [3]: < 1 nM

COc1cc2c(Nc3ccc(C(=O)Nc4ccccc4)s3)ncnc2cc1OCCCN1CCOCC1
IC50 [2]: 57 nM | IC50 [3]: 11 nM

CCC(=O)Nc1ccc(Sc2nc(Nc3cc(C)n[nH]3)cc(N3CCN(CC)CC3)n2)cc1
IC50 [6]: 24 nM | solubility [8]: 114 µM | IC50 [2]: 25 nM | IC50 [3]: < 1 nM

CN1CCN(c2ccc(C(=O)Nc3n[nH]c4c3CN(C(=O)Cc3cccs3)C4)cc2)CC1
IC50 [7]: 570 nM

COc1cc2c(Nc3ncc(CC(=O)Nc4ccccc4)s3)ncnc2cc1OCCCN1CCOCC1
IC50 [2]: < 1 nM | IC50 [3]: < 1 nM

COc1cc(Nc2ncc3c(n2)-c2ccc(Cl)cc2C(c2c(F)cccc2OC)=NC3)ccc1C(=O)O [ALISERTIB]
IC50 [15]: 320 nM

O=C(Nc1c[nH]nc1-c1nc2cc(CN3CCOCC3)ccc2[nH]1)NC1CC1 [AT-9283]
IC50 [2]: 3 nM

CCN(CCCOc1ccc2c(Nc3cc(CC(=O)Nc4cccc(F)c4)n[nH]3)ncnc2c1)CCOP(=O)(O)O [BARASERTIB]
half-life [9]: 5 h | clearance [14]: 14 mL/min/kg

Cc1nc(N)sc1-c1ccnc(Nc2ccc(N3CCOCC3)cc2)n1 [CYC-116]
IC50 [16]: 65 nM

CO[C@@H](C(=O)N1Cc2n[nH]c(NC(=O)c3ccc(N4CCN(C)CC4)cc3)c2C1)c1ccccc1 [DANUSERTIB]
IC50 [17]: 28000 nM | clearance [18]: 28.3 mL/min/kg | Vd [19]: 2.7 L/kg | half-life [20]: 3.7 h

O=C(O)c1ccc(Nc2ncc3c(n2)-c2ccc(Cl)cc2C(c2c(F)cccc2F)=NC3)cc1 [MLN-8054]
concentration at 24 h [21]: > 1000 nM | concentration at 24 h [22]: > 2000 nM

O=C(Nc1cccc(Cl)c1)Nc1ncc(CCNc2ncnc3ccsc23)s1 [SNS-314 MESYLATE]
EC50 [7]: 6 nM

Cc1cc(Nc2cc(N3CCN(C)CC3)nc(Sc3ccc(NC(=O)C4CC4)cc3)n2)[nH]n1 [TOZASERTIB]
Activity [23]: 75%
